Patent publication US9868766B2, “Peptides as oxytocin agonists” (Hoffmann-La Roche Inc., priority 2012, dated 2018)
Positions of bridges follow the written chain, without caps; N, C: chain ends. Non-standard residues stand in square brackets, D forms with d. Residues, ends and D or L forms follow the SMILES beside them. Phe(4-NH2) = Nc1ccc(C[C@H](N)C(=O)O)cc1; Gly(octyl) = CCCCCCCC[C@H](N)C(=O)O; αMeL = CC(C)C[C@](C)(N)C(=O)O; Orn = NCCC[C@H](N)C(=O)O; Aze = O=C(O)[C@@H]1CCN1; Sar = CNCC(=O)O

Key:
Assay type in all cases: cell-based
[1] = biological target: T1, human V1a receptor (Homo sapiens, UniProt P37288); test: Calcium flux assay (FLIPR), agonist mode, CHO cells expressing human V1a; settings: for EC50: CHO cells stably expressing human V1a, calcium flux, read-out: hV1a EC50; for hV1a efficacy (%): maximum response normalized to endogenous full agonist = 100%
T1 construct: expressed in transfected cells
Excerpt: (§1) Chines Hamster Ovary (CHO) cells were transfected with expression plasmids encoding either the human V1a, the human Oxytocin (OTR) or the humanV2 receptor, the later in combination with the chimeric Gqs5 G protein to redirect the signal to Calcium flux. Stable cells were cloned by limiting dilution to yield monoclonal cell lines expressing either human V1a, human V2+Gqs5 or human OTR receptors and selected based on functional responses detected on a fluorometric imaging plate reader (FLIPR) detecting Calcium flux in the cell after receptor activation. The stable cell lines were grown in F-12 K Nutrient Mixture (Kaighns Modification), containing 10% foetal bovine serum (FBS), 1% penicillin-streptomycin, 1% L-glutamate, 200 ug/ml Geneticin at 37° C. in a 10% CO2 incubator at 95% humidity.
(§2) On the afternoon before the assay, cells were plated at a density of 50,000 cells/well into black 96 well plates with clear bottoms to allow cell inspection and fluorescence measurements from the bottom of each well. The density of cells was sufficient to yield a confluent monolayer the next day. Hanks balanced salt solution, without phenol red, containing 20 mM HEPES (pH 7.3) and 2.5 mM probenecid (assay buffer) was prepared fresh for each experiment. Compound dilutions were made using a Beckman Biomek 2000 laboratory automation workstation, in assay buffer containing 1% DMSO. The dye-loading buffer consisted of a final concentration of 2 μM Fluo-4-AM (dissolved in DMSO and pluronic acid) in assay buffer. The existing culture media was removed from the wells and 100 μl of the dye-loading buffer was added to each well and incubated for approximately 60 min at 37° C. in a 5% CO2 incubator at 95% humidity. Once dye-loaded, the cells were washed thoroughly on an Embla cell washer with the assay buffer to remove any unincorporated dye. Exactly 100 μl assay buffer was left in each well.
(§3) Each 96 well plate containing dye-loaded cells was placed into the FLIPR machine and the laser intensity set to a suitable level to detect low basal fluorescence. To test compounds as agonists, 25 μl diluted compound was added to the plate 10 seconds into the fluorescent measurements and fluorescent response was recorded for 5 minutes. The fluorescence data was normalized to the endogenous full agonist dose-response set at 100% for the maximum response and 0% for the minimum. Each agonist concentration-response curve was constructed using a four parameter logistic equation with Microsoft Excel XLFit as follows: Y=Minimum+((Maximum−Minimum)/(1+10^(Log EC50-X)nH)), where y is the % normalized fluorescence, minimum is the minimum y, maximum is the maximum y, log EC50 is the log10 concentration which produces 50% of the maximum induced fluorescence, x is the log10 of the concentration of the agonist compound and H is the slope of the curve (the Hill Coefficient). The maximum value gives the efficacy of the agonist test compound in percentage. The concentration of agonist that produced a half-maximal response is represented by the EC50 value, the logarithm of which yielded the pEC50 value.

[2] = biological target: T2, human Oxytocin (OTR) receptor (Homo sapiens, UniProt P30559); test: Calcium flux assay (FLIPR), agonist mode, CHO cells expressing human OTR; settings: for EC50: CHO cells stably expressing human OTR, calcium flux, read-out: hOT EC50; for hOT efficacy (%) / Emax: maximum response normalized to endogenous full agonist = 100%; for Emax: CHO, read-out: hOT efficacy (%)
T2 construct: expressed in transfected cells
T2 sequence (P30559 1-389): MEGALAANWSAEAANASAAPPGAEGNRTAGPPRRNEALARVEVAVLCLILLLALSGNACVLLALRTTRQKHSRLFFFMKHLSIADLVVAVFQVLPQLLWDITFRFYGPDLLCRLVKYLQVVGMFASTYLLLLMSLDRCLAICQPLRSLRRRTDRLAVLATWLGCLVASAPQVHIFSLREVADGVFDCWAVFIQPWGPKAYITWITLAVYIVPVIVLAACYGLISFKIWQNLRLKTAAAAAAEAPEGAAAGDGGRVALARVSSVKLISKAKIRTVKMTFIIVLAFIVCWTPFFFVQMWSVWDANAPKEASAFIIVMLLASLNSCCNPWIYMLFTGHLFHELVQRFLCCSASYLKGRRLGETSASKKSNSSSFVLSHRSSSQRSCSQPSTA
Excerpt: as §1, with “activation.” for “activation. The stable cell lines were grown in F-12 K Nutrient Mixture (Kaighns Modification), containing 10% foetal bovine serum (FBS), 1% penicillin-streptomycin, 1% L-glutamate, 200 ug/ml Geneticin at 37° C. in a 10% CO2 incubator at 95% humidity.”
as §2, with “The existing culture media was removed from the wells and 100 μl of the dye-loading buffer was added to each well and incubated for approximately 60 min at 37° C. in a 5% CO2 incubator at 95% humidity.” left out
Each 96 well plate containing dye-loaded cells was placed into the FLIPR machine and the laser intensity set to a suitable level to detect low basal fluorescence. To test compounds as agonists, 25 μl diluted compound was added to the plate 10 seconds into the fluorescent measurements and fluorescent response was recorded for 5 minutes. The fluorescence data was normalized to the endogenous full agonist dose-response set at 100% for the maximum response and 0% for the minimum. […] The concentration of agonist that produced a half-maximal response is represented by the EC50 value, the logarithm of which yielded the pEC50 value.

[3] = biological target: T3, human V2 receptor (Homo sapiens, UniProt P30518); test: Calcium flux assay (FLIPR), agonist mode, CHO cells expressing human V2 + Gqs5; settings: CHO; maximum response normalized to endogenous full agonist = 100%; read-out: hV2 efficacy (%)
T3 construct: expressed in transfected cells
Excerpt: as §1, §2, §3

T1 sequence (P37288 whole entry): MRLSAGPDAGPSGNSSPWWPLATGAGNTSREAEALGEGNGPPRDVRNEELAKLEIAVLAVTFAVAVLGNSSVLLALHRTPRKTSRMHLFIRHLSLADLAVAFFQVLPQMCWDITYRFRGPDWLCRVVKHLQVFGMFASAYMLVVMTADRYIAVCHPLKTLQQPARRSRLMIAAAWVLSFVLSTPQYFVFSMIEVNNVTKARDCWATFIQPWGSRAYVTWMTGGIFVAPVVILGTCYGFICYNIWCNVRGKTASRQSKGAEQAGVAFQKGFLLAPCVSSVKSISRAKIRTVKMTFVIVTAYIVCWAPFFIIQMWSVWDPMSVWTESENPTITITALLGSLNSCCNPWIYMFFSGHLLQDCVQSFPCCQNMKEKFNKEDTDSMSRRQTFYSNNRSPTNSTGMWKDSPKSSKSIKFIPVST
T3 sequence (P30518 whole entry): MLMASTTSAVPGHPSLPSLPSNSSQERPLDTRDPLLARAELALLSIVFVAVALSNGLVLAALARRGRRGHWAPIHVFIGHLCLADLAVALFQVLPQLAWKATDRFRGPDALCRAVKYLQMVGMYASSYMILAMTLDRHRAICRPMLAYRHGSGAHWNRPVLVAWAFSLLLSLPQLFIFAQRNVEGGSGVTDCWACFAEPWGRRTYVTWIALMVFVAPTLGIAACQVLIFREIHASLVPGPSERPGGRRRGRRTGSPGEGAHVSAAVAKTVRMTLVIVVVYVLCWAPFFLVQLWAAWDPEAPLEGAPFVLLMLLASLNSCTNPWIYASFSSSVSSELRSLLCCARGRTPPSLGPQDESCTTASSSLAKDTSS

SMILES | EC50 [1] | EC50 [2] | hOT efficacy (%) [2] | hV1a efficacy (%) [1] | Emax [2] | Emax [3]
CC[C@H](C)[C@@H]1NC(=O)[C@H](Cc2ccc(O)cc2)NC(=O)CNC(=O)CC[C@@H](C(=O)N2CCC[C@H]2C(=O)N[C@H](CC(C)C)C(=O)NCC(N)=O)NC(=O)[C@H](CC(N)=O)NC(=O)[C@H](CCC(N)=O)NC1=O [Example 15] (GYIQNEP[dL]G-NH2; lactam N-6) | > 12000 nM | 52 nM | 102% | – | – | –
CC[C@H](C)[C@@H]1NC(=O)[C@H](Cc2ccc(O)cc2)NC(=O)CNC(=O)CC[C@@H](C(=O)N[C@@H](C)C(=O)N[C@@H](C)C(=O)NCC(N)=O)NC(=O)[C@H](CC(N)=O)NC(=O)[C@H](CCC(N)=O)NC1=O [Example 16] (GYIQNEAAG-NH2; lactam N-6) | > 12000 nM | 30 nM | 105% | – | – | –
CC[C@H](C)[C@@H]1NC(=O)[C@H](Cc2ccc(O)cc2)NC(=O)CNC(=O)CC[C@@H](C(=O)N[C@@H](C)C(=O)N[C@@H](CC(C)C)C(=O)NCC(N)=O)NC(=O)[C@H](CC(N)=O)NC(=O)[C@H](CCC(N)=O)NC1=O [Example 17] (GYIQNEALG-NH2; lactam N-6) | > 12000 nM | 45 nM | 92% | – | – | –
CC[C@H](C)[C@@H]1NC(=O)[C@H](Cc2ccc(O)cc2)NC(=O)CNC(=O)CC[C@@H](C(=O)N2CCC[C@H]2C(=O)N[C@@H](C)C(=O)NCC(N)=O)NC(=O)[C@H](CC(N)=O)NC(=O)[C@H](CCC(N)=O)NC1=O [Example 18] (GYIQNEPAG-NH2; lactam N-6) | > 12000 nM | 24 nM | 91% | – | – | –
CC[C@H](C)[C@@H]1NC(=O)[C@H](Cc2ccc(O)cc2)NC(=O)CNC(=O)CC[C@@H](C(=O)N2CCC[C@H]2C(=O)N[C@@H](CC(C)C)C(=O)NCC(N)=O)NC(=O)[C@H](CC(N)=O)NC(=O)[C@H](CCCN)NC1=O [Example 20] (GYI[Orn]NEPLG-NH2; lactam N-6) | > 12000 nM | 40 nM | – | – | – | –
CC[C@H](C)[C@@H]1NC(=O)[C@H](Cc2ccc(O)cc2)NC(=O)CNC(=O)CC[C@@H](C(=O)N(C)CC(=O)N[C@@H](CCSC)C(=O)NCC(N)=O)NC(=O)[C@H](CC(N)=O)NC(=O)[C@H](CCC(N)=O)NC1=O [Example 35] (GYIQNE[Sar]MG-NH2; lactam N-6) | – | – | – | – | 111% | 104%
CC[C@H](C)[C@@H]1NC(=O)[C@H](Cc2ccc(O)cc2)NC(=O)CNC(=O)CC[C@@H](C(=O)N(C)CC(=O)N[C@@H](CC(C)C)C(=O)NCC(N)=O)NC(=O)[C@H](CC(N)=O)NC(=O)[C@H](C(C)C)NC1=O [Example 55] (GYIVNE[Sar]LG-NH2; lactam N-6) | – | 20 nM | 104% | – | – | –

More lines, now with the values ahead:

EC50 [1] | EC50 [2] | hOT efficacy (%) [2] | hV1a efficacy (%) [1] | Emax [2] | Emax [3] | SMILES
> 27000 nM | 11 nM | 95% | – | – | – | CC[C@H](C)[C@@H]1NC(=O)[C@H](Cc2ccc(O)cc2)NC(=O)CNC(=O)CC[C@@H](C(=O)NCC(=O)N[C@@H](CC(C)C)C(=O)NCC(N)=O)NC(=O)[C@H](CC(N)=O)NC(=O)[C@H](CCC(N)=O)NC1=O [Example 6] (GYIQNEGLG-NH2; lactam N-6)
> 2700 nM | 17 nM | 91% | – | – | – | CC[C@H](C)[C@@H]1NC(=O)[C@H](Cc2ccc(N)cc2)NC(=O)CNC(=O)CC[C@@H](C(=O)N2CCC[C@H]2C(=O)N[C@@H](CC(C)C)C(=O)NCC(N)=O)NC(=O)[C@H](CC(N)=O)NC(=O)[C@H](CCC(N)=O)NC1=O [Example 10] (G[Phe(4-NH2)]IQNEPLG-NH2; lactam N-6)
> 27000 nM | 11 nM | 94% | – | – | – | CC[C@H](C)[C@@H]1NC(=O)[C@H](Cc2ccc(O)cc2)NC(=O)CNC(=O)CC[C@@H](C(=O)N2CCC[C@H]2C(=O)N[C@@H](Cc2ccc(N)cc2)C(=O)NCC(N)=O)NC(=O)[C@H](CC(N)=O)NC(=O)[C@H](CCC(N)=O)NC1=O [Example 11] (GYIQNEP[Phe(4-NH2)]G-NH2; lactam N-6)
127 nM | 1.5 nM | – | 33% | 122% | – | CC[C@H](C)[C@@H]1NC(=O)[C@H](Cc2ccc(O)cc2)NC(=O)CNC(=O)CC[C@@H](C(=O)N2CCC[C@H]2C(=O)N[C@H](C(=O)NCC(N)=O)C(C)C)NC(=O)[C@H](CC(N)=O)NC(=O)[C@H](CCC(N)=O)NC1=O [Example 19] (GYIQNEPVG-NH2; lactam N-6)
32 nM | 12 nM | 105% | 55% | – | – | CC[C@H](C)[C@@H]1NC(=O)[C@H](Cc2ccc(O)cc2)NC(=O)CNC(=O)CC[C@@H](C(=O)N2CCC[C@H]2C(=O)N[C@@H](CCCCN)C(=O)NCC(N)=O)NC(=O)[C@H](CC(N)=O)NC(=O)[C@H](CCC(N)=O)NC1=O [Example 21] (GYIQNEPKG-NH2; lactam N-6)
> 27000 nM | 3.6 nM | – | – | 99% | – | CC[C@H](C)[C@@H]1NC(=O)[C@H](Cc2ccc(O)cc2)NC(=O)CNC(=O)CC[C@@H](C(=O)N2CC[C@H]2C(=O)N[C@@H](CC(C)C)C(=O)NCC(N)=O)NC(=O)[C@H](CC(N)=O)NC(=O)[C@H](CCC(N)=O)NC1=O [Example 50] (GYIQNE[Aze]LG-NH2; lactam N-6)
> 27000 nM | 13 nM | 97% | – | – | – | CC[C@H](C)[C@@H]1NC(=O)[C@H](Cc2ccc(O)cc2)NC(=O)CNC(=O)CC[C@@H](C(=O)N(C)CC(=O)N[C@@](C)(CC(C)C)C(=O)NCC(N)=O)NC(=O)[C@H](CC(N)=O)NC(=O)[C@H](CCC(N)=O)NC1=O [Example 51] (GYIQNE[Sar][αMeL]G-NH2; lactam N-6)
– | 0.8 nM | – | – | 134% | – | CCCCCCCC[C@H](NC(=O)CN(C)C(=O)[C@@H]1CCC(=O)NCC(=O)N[C@@H](Cc2ccc(O)cc2)C(=O)N[C@@H]([C@@H](C)CC)C(=O)N[C@@H](CCC(N)=O)C(=O)N[C@@H](CC(N)=O)C(=O)N1)C(=O)NCC(N)=O [Example 54] (GYIQNE[Sar][Gly(octyl)]G-NH2; lactam N-6)
